Among the data in paper PMC5992482 (Molecular Therapy. Nucleic Acids, 2018) are IC50 values, retold here.

For this experiment, the target named is T1, Nicotinamide N-methyltransferase (NNMT) (Homo sapiens, UniProt P40261).
T1 sequence (P40261 1-264): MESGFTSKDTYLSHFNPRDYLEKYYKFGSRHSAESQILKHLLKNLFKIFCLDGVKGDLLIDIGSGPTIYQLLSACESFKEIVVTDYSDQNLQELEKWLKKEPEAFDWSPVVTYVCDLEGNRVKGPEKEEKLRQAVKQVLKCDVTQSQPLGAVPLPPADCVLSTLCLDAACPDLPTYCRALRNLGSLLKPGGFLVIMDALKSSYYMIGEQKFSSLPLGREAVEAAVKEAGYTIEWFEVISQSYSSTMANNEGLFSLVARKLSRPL
The experiment can be described thus: in vitro enzyme activity assay with purified NNMT. In kind it is biochemical.

`C=C(C)[C@@]12O[C@@]3(/C=C/C=C/CCCCC)O[C@@H]1[C@@H]1[C@@H]4O[C@]4(CO)[C@@H](O)[C@]4(O)C(=O)C(C)=C[C@H]4[C@@]1(O3)[C@H](C)[C@H]2OC(C)=O` [YD, yuanhuadine]: the midpoint of inhibition, the IC50, lay at 400 nM.
